Test results taken from publication PMC8348142, “Antimicrobial Peptide Modifications against Clinically Isolated Antibiotic-Resistant Salmonella” (Molecules, 2021).
Ends that are not written are not given here.

Test system: clinical Salmonella isolates
Test: Antibiofilm: inhibition of initial cell attachment, crystal violet
Assay type: cell-based
Details: 24 h, 30 °C, polystyrene plate, crystal violet OD590
Protocol: The effect of peptides on biofilm formation was tested according to the method described by Sandasi et al. with slight modifications.
Bacterial suspensions of 5 × 10^5 CFU/mL in MHB were prepared as described above. […] The plates were incubated to grow biofilms for 24 h at 30 °C. The incubations of bacteria without peptide and MHB without bacteria were employed as positive (100%) control and negative (0%) control for biofilm growth, respectively. The assay was carried out twice.
The biofilm biomasses obtained from the antibiofilm assay plates were quantified by the crystal violet (CV) staining method with minor modifications. After incubating the plates to grow the biofilms, the growth medium and free bacterial cells were gently removed from the wells and then rinsed thrice with water. The plates were air-dried and subsequently 60 °C oven-dried for 30 min. Each well was stained with 125 µL of 0.1% CV (Merck, Burlington, MA, USA) solution for 15 min. The solution was removed from the wells and further thrice rinsed with water. The biomass bound CV was dissolved with 125 µL of 95% ethanol (Merck) for 5 min, and was transferred into a flat-bottom PS 96-well plate (Jet Biofil, Guangzhou, China). Absorbance values at 590 nm (OD590) of the dissolved solutions were measured by a microplate reader (Tecan Sunrise, Männedorf, Switzerland). Mean OD590 values were determined and all were subtracted by mean OD590 of MHB (negative control) prior to calculate the inhibition (%) as; ((OD590 (no peptide) − OD590 (peptide))/(OD590 (no peptide)) × 100.

FIRRIARLLRRIF-NH2 [Kn2-5R-NH2]
Inhibition (%) of cell attachment (0.25MBC, isolate 5): 69% | Inhibition (%) of cell attachment (0.25MBC, isolate 7): 73.6% | Inhibition (%) of cell attachment (0.25MBC, isolate 11): 64.3% | Inhibition (%) of cell attachment (0.25MBC, isolate 18): 25% | Inhibition (%) of cell attachment (0.25MBC, isolate 26): 88.2% | Inhibition (%) of cell attachment (0.25MBC, isolate 27): 79.1% | Inhibition (%) of cell attachment (0.25MBC, isolate 55): 73.3% | Inhibition (%) of cell attachment (0.25MBC, isolate 61): 33.3% | Inhibition (%) of cell attachment (0.25MBC, isolate 69): 40% | Inhibition (%) of cell attachment (0.25MBC, isolate 76): 79.1% | Inhibition (%) of cell attachment (0.25MBC, isolate 78): 43.9% | Inhibition (%) of cell attachment (0.25MBC, isolate 107): 78.3% | Inhibition (%) of cell attachment (0.5MBC, isolate 5): 100% | Inhibition (%) of cell attachment (0.5MBC, isolate 7): 93% | Inhibition (%) of cell attachment (0.5MBC, isolate 11): 100% | Inhibition (%) of cell attachment (0.5MBC, isolate 18): 58.3% | Inhibition (%) of cell attachment (0.5MBC, isolate 26): 100% | Inhibition (%) of cell attachment (0.5MBC, isolate 27): 100% | Inhibition (%) of cell attachment (0.5MBC, isolate 55): 84.1% | Inhibition (%) of cell attachment (0.5MBC, isolate 61): 63.2% | Inhibition (%) of cell attachment (0.5MBC, isolate 69): 64.8% | Inhibition (%) of cell attachment (0.5MBC, isolate 76): 100% | Inhibition (%) of cell attachment (0.5MBC, isolate 78): 98.9% | Inhibition (%) of cell attachment (0.5MBC, isolate 107): 100%
